The text below walks through data of ChEMBL document CHEMBL1240417, “QSAR studies of bioactivities of 1-(azacyclyl)-3-arylsulfonyl-1H-pyrrolo[2,3-b]pyridines as 5-HT6 receptor ligands using physicochemical descriptors and MLR and ANN-modeling” (Eur J Med Chem, 2010).

For the experiment, the target named is 5-hydroxytryptamine receptor 6 (Homo sapiens, UniProt P50406). Description: Binding affinity to 5HT6 receptor.
Chain of 5-hydroxytryptamine receptor 6 (P50406 whole entry): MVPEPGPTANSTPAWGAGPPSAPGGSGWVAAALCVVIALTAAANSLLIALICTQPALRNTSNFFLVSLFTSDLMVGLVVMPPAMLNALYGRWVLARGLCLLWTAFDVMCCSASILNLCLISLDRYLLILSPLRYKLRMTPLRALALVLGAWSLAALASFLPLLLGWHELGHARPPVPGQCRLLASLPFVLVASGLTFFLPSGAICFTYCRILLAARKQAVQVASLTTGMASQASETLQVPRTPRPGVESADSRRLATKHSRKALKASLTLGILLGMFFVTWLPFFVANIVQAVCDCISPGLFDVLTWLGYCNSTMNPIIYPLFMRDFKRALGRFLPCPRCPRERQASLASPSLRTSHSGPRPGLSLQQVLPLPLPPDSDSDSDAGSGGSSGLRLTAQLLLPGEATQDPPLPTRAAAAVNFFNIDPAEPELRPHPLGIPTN

With `CCN1CCCC(n2cc(S(=O)(=O)c3ccc(Cl)cc3)c3cccnc32)C1` (centres undefined), the Ki was 33.1 nM.
Consider `CCN1CCC(n2cc(S(=O)(=O)c3c(Cl)nc4sccn34)c3cccnc32)C1` (centres undefined), for which the affinity, expressed as Ki, was 1.41 nM.
Regarding `O=S(=O)(c1ccc(Cl)s1)c1cn(C2CCNC2)c2ncccc12` (centres undefined), the Ki is 1 nM.
The molecule `O=S(=O)(c1cn(C2CCCNC2)c2ncccc12)c1c(Cl)nc2sccn12` (centres undefined) had a Ki of 0.708 nM. The Ki values of the last two molecules are within 1.5-fold of each other.
Molecule `CCN1CCCC(n2cc(S(=O)(=O)c3c(Cl)nc4sccn34)c3cccnc32)C1` (centres undefined) gave a Ki of 0.708 nM.
Consider `CC(C)N1CCCC(n2cc(S(=O)(=O)c3c(Cl)nc4sccn34)c3cccnc32)C1` (centres undefined), for which the affinity corresponds to a Ki of 1.7 nM. This Ki lies about 2.4-fold higher than the previous one.
For the molecule `CN1CCCC(n2cc(S(=O)(=O)c3c(Cl)nc4sccn34)c3cccnc32)C1` (centres undefined), the affinity, expressed as Ki, was 2 nM. This Ki and that of the molecule before are within 1.5-fold of each other.
As for `O=S(=O)(c1cn(C2CCNC2)c2ncccc12)c1c(Cl)nc2sccn12` (centres undefined), the figure is 1 nM; as for `CN1CCC(n2cc(S(=O)(=O)c3c(Cl)nc4sccn34)c3cccnc32)C1` (centres undefined), 0.794 nM.

What is called Ki is a dissociation constant, usually derived from enzyme kinetics or from competition with a known ligand.
